One data set has as its system chick embryos. Description: Chick embryo CAM model: toxicity to the embryo. Particulars: 4.4 μM and 22 μM. In kind it is in vivo. The text has this: At stage E9, the chorioallantoic membrane (CAM) was dropped by drilling a small hole through the eggshell into the air sac and a 1 cm^2 window was cut in the eggshell above the CAM. Cultured MCF7 cells were detached with trypsin, washed with complete medium and suspended in PBS. […] At E18 the upper portion of the CAM was removed, transferred to PBS and the tumors cut away from normal CAM tissue and weighed. A one-way ANOVA analysis with post-tests was done. In parallel, a 1 cm^2 portion of the lower CAM was collected to evaluate the number of metastatic cells. The relative amount of metastasis was calculated as follows: Tumor cells were grafted onto the upper chorioallantoic membrane (CAM) and during metastasis the cells invade the epithelium and basement membrane of the upper CAM and move through connective tissue into the vasculature into the lower CAM. The cells in the lower CAM are then harvested and genomic DNA is extracted and analyzed by qPCR with specific primers for Alu sequences which are only found in higher primates i.e. it allows for the distinction between human tumor cells and the host chick cells. Statistical analysis was directly performed on data from the Bio-Rad CFX Manager 3.1 software.

In the next data set the test system is T47D cells. Description: Western blotting / immunofluorescence, T47D. In kind it is cell-based, human. The protocol: (§1) Cells were exposed to MMV652103 or vehicle for 24 and 48 h. Cell lysates were prepared, and western blotting performed as previously described (Abrahams et al., 2008[1]). Primary antibodies were: PARP1/2 (sc-7150, 1:1000), p53 (sc-126, 1:1000), p21 (sc-756, 1:1000), cyclin B1 (H-433) (sc-752, 1:500) from Santa Cruz (California, USA), phospho-H2AX (#2577, 1:1000), phospho-p38 MAP Kinase (#9211, 1:1000), LC3 (#2775, 1:1000), caspase-7 (#9492, 1:1000), caspase-8 (#9746, 1:1000), caspase-9 (#9502S, 1:1000), from Cell Signaling (Boston, MA, USA), PUMA (ab9643, 1:1000) (AbCam, Cambridge, MA, USA) and p38 (M0800, 1:5000) from Sigma (St. Louis, MO, USA). Total p38 was used as a loading control because although its activity is modulated by phosphorylation, its total levels remain unaltered in response to stimuli (Raingeaud et al., 1995[68]). Densitometry readings were obtained using ImageJ v1.50i58 and protein expression levels were represented as a ratio of protein of interest/p38 loading control normalized to the vehicle treated control sample where appropriate. All blots are representative of at least three independent experiments.
(§2) Cells on glass coverslips were treated with either MMV652103 or vehicle for 24 and 48 h and processed for immunofluorescence with antibodies against phospho H2A.X (#2577) (1:500) or LC3B (#2775) (1:200) (Cell Signaling Technology) as previously described (Bleloch et al., 2019[8]). Cells were imaged using confocal microscopy (Carl Zeiss LSM 880 with Fast Airyscan module confocal (Oberkochen, Germany)). Multiple z layers were acquired with […] step width. Images were processed using ZEN 2012 imaging software (Carl Zeiss) and maximum intensity projections were generated. For quantification, mean fluorescence was measured from at least 20 fields of view per treatment condition and pooled from three independent replicates.
A general note: A western blot detects proteins with antibodies after separation by electrophoresis.

Another data set deals with MCF7 cells. Description: Western blotting / immunofluorescence, MCF7. In kind it is cell-based, human. The protocol: as §1, §2
The target of a further data set is T1, PIK3C2B (Homo sapiens, UniProt O00750).
T1 construct: purchased Carna Biosciences Inc; Invitrogen Corporation
T1 sequence (O00750 whole entry): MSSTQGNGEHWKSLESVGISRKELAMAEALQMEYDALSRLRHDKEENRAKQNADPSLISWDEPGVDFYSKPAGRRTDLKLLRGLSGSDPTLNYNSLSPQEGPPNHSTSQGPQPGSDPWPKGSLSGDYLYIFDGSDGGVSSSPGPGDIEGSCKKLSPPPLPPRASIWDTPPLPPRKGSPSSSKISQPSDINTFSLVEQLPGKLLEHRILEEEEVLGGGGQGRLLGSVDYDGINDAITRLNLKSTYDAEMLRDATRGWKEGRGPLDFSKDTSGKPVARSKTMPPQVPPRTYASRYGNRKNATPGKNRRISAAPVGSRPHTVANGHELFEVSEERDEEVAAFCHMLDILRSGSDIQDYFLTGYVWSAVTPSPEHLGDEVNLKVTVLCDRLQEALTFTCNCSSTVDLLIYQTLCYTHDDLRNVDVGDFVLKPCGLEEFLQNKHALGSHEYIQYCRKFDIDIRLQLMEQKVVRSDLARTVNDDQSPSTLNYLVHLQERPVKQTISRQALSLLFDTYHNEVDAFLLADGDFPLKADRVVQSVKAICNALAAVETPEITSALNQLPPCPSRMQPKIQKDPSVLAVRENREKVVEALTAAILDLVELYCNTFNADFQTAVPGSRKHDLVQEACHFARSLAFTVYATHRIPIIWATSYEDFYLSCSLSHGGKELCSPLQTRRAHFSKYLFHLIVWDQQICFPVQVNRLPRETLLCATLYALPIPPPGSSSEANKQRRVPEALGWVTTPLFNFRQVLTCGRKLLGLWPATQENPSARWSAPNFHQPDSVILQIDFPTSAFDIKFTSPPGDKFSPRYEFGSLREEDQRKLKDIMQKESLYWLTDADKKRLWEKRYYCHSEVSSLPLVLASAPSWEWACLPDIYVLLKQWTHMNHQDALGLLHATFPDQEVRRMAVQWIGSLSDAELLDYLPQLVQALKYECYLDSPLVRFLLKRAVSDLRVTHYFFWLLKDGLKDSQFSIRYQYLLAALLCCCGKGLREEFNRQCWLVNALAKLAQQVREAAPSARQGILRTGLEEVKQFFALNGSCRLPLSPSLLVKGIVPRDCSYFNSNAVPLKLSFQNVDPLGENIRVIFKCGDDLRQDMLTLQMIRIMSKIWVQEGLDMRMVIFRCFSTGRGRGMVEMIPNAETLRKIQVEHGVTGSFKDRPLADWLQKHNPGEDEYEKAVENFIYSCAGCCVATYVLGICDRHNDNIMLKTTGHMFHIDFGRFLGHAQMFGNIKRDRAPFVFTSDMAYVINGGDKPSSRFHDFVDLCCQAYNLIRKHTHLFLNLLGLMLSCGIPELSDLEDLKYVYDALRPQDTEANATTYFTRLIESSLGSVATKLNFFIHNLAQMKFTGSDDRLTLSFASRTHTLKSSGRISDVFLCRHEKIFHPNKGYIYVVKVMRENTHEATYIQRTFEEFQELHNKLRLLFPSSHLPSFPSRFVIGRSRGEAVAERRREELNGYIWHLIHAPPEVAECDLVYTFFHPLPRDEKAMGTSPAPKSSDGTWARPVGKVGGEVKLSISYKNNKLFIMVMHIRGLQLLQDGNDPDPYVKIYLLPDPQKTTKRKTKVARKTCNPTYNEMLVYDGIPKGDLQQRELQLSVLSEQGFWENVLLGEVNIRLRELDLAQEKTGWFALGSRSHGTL
Nature of the data set: ADP-Glo lipid kinase assay, PIK3C2B. In kind it is biochemical. The note with it: 10 µM compound.

By remaining activity is commonly meant the activity still measured, relative to the control. `CS(=O)(=O)c1ccc(-c2cnc3ccc(-c4cccc(S(C)(=O)=O)c4)nn23)cc1` [MMV652103]: in the data set with chick embryos, the “death ratio of chick embryos” value is “did not result in an abnormal death ratio”. The “macroscopic abnormalities of chick embryos” value in the data set with chick embryos (results not shown) is “nor did it lead to any macroscopic abnormalities”. Besides, in the data set on T47D cells (western blot), the “levels of phosphorylated p38, T47D” value was “increased” and the “p21 levels, T47D” value is on record as “increased”. In the data set on T47D cells (western blot, mutant non-functional p53), the “levels of p53, T47D” value is listed as “no effect”. For the same molecule, the “levels of γH2AX, T47D” value with T47D cells (½ IC50 and IC50, 24 and 48 h) is “dose- and time-dependent increase”. Further, in the data set on MCF7 cells (western blot), the “LC3 to LC3II conversion” value is reported as “led to the conversion of LC3 to LC3II”; the “cyclin A and cyclin B1 levels” value is “reduced”; the “levels of p53, MCF7” value is “dose- and time-dependent increase”; the “levels of phosphorylated p38, MCF7” value was “increased”. In the data set with MCF7 cells (western blot), the “p21 levels, MCF7” value was “increased”. Also, the “levels of γH2AX, MCF7” value in the data set on MCF7 cells (½ IC50 and IC50, 24 and 48 h) is “dose- and time-dependent increase”. The “levels of PUMA, cleaved caspase-8, caspase-9, caspase-7 and PARP” value in the data set on MCF7 cells (½ IC50 and IC50, western blot) is listed as “increased levels”. For the same molecule, the remaining activity at 10 µM at PIK3C2B worked out at 31%.

These data come from paper PMC9149975, “The diaryl-imidazopyridazine anti-plasmodial compound, MMV652103, exhibits anti-breast cancer activity” (EXCLI Journal, 2022).
